Earlier results as cited in patent US5112837A, “Quinoline derivatives having anti-tumor activity” (Imperial Chemical Industries PLC, priority 1987, dated 1992).

How the values were obtained:
[1] = literature references
[2] = test system: human breast, ovarian and liver cancer; conditions: clinical trials

In the case of `C#CCN(Cc1ccc2nc(N)[nH]c(=O)c2c1)c1ccc(C(=O)N[C@@H](CCC(=O)O)C(=O)O)cc1` [CB3717], the “symptoms of toxicity in humans” value [1] is listed as “symptoms of toxicity in humans, particularly in relation to the liver and kidney” and the “activity against human cancer” value [2] is listed as “promising activity against human breast, ovarian and liver cancer”.
